Measured values taken from US20120115877A1, “Facially Amphiphilic Compounds, Compositions, And Uses Thereof In Treating Cancer” (POLYMEDIX, INC., priority 2010, published 2012).

Experiments:
Format in all cases: cell-based, human
MDA-MB-31/ATCC = assay: NCI-60 screen, Breast Cancer; conditions: 10 μM, MDA-MB-231/ATCC
Description: (§1) Several compounds were tested at single concentrations (10 μM) against 59 different human tumor cell lines, representing leukemia, melanoma and cancers of the lung, colon, brain, ovary, breast, prostate, and kidney (see, Table 3). The human tumor cell lines of the cancer screening panel were grown in RPMI 1640 medium containing 5% fetal bovine serum and 2 mM L-glutamine. For a typical screening experiment, cells were inoculated into 96 well microtiter plates in 100 μL at plating densities ranging from 5,000 to 40,000 cells/well depending on the doubling time of individual cell lines. After cell inoculation, the microtiter plates were incubated at 37° C., 5% CO2, 95% air and 100% relative humidity for 24 hours prior to addition of the compounds.
(§2) After 24 hours, two plates of each cell line were fixed in situ with TCA, to represent a measurement of the cell population for each cell line at the time of drug addition (Tz). Compounds were solubilized in dimethyl sulfoxide at 400-fold the desired final maximum test concentration and stored frozen prior to use. At the time of drug addition, an aliquot of frozen concentrate was thawed and diluted to twice the desired final maximum test concentration with complete medium containing 50 μg/ml gentamicin. Additional four, 10-fold or ½ log serial dilutions were made to provide a total of five compound concentrations plus control. Aliquots of 100 μl of these different drug dilutions were added to the appropriate microtiter wells already containing 100 μl of medium, resulting in the required final compound concentrations.
(§3) Following drug addition, the plates were incubated for an additional 48 hours at 37° C., 5% CO2, 95% air, and 100% relative humidity. For adherent cells, the assay was terminated by the addition of cold TCA. Cells were fixed in situ by the gentle addition of 50 μl of cold 50% (w/v) TCA (final concentration, 10% TCA) and incubated for 60 minutes at 4° C. The supernatant was discarded, and the plates were washed five times with tap water and air dried. Sulforhodamine B (SRB) solution (100 μl) at 0.4% (w/v) in 1% acetic acid was added to each well, and plates were incubated for 10 minutes at room temperature. After staining, unbound dye was removed by washing five times with 1% acetic acid and the plates were air dried. Bound stain was subsequently solubilized with 10 mM trizma base, and the absorbance was read on an automated plate reader at a wavelength of 515 nm. For suspension cells, the methodology was the same except that the assay was terminated by fixing settled cells at the bottom of the wells by gently adding 50 μl of 80% TCA (final concentration, 16% TCA). Using the seven absorbance measurements (time zero, (Tz), control growth, (C), and test growth in the presence of drug at the five concentration levels (Ti)), the percentage growth was calculated at each of the compound concentrations levels. Percentage growth inhibition was calculated as:
(§4) [(Ti−Tz)/(C−Tz)]×100 for concentrations for which Ti>/=Tz
(§5) [(Ti−Tz)/Tz]×100 for concentrations for which Ti<Tz.
(§6) Three dose response parameters were calculated for each compound. Growth inhibition of 50% (GI50) was calculated from [(Ti−Tz)/(C−Tz)]×100=50, which is the compound concentration resulting in a 50% reduction in the net protein increase (as measured by SRB staining) in control cells during the compound incubation. The compound concentration resulting in total growth inhibition (TGI) was calculated from Ti=Tz. The LC50 (concentration of compound resulting in a 50% reduction in the measured protein at the end of the compound treatment as compared to that at the beginning) indicating a net loss of cells following treatment was calculated from [(Ti−Tz)/Tz]×100=−50. Values were calculated for each of these three parameters if the level of activity was reached; however, if the effect was not reached or was exceeded, the value for that parameter was expressed as greater or less than the maximum or minimum concentration tested.

MCF7 = assay: NCI-60 screen, Breast Cancer; conditions: 10 μM
Description: as §1, §2, §3, §4, §5, §6

LOX IMVI = assay: NCI-60 screen, Melanoma; conditions: 10 μM
Description: as §1, §2, §3, §4, §5, §6

MALME-3M = assay: NCI-60 screen, Melanoma; conditions: 10 μM
Description: as §1, §2, §3, §4, §5, §6

UACC-62 = assay: NCI-60 screen, Melanoma; conditions: 10 μM
Description: as §1, §2, §3, §4, §5, §6

SK-MEL-2 = assay: NCI-60 screen, Melanoma; conditions: 10 μM
Description: as §1, §2, §3, §4, §5, §6

SK-MEL-28 = assay: NCI-60 screen, Melanoma; conditions: 10 μM
Description: as §1, §2, §3, §4, §5, §6

SK-MEL-5 = assay: NCI-60 screen, Melanoma; conditions: 10 μM
Description: as §1, §2, §3, §4, §5, §6

UACC-257 = assay: NCI-60 screen, Melanoma; conditions: 10 μM
Description: as §1, §2, §3, §4, §5, §6

MDA-MB-435 = assay: NCI-60 screen, Melanoma; conditions: 10 μM
Description: as §1, §2, §3, §4, §5, §6

SNB-19 = assay: NCI-60 screen, CNS Cancer; conditions: 10 μM
Description: as §1, §2, §3, §4, §5, §6

SNB-75 = assay: NCI-60 screen, CNS Cancer; conditions: 10 μM
Description: as §1, §2, §3, §4, §5, §6

U251 = assay: NCI-60 screen, CNS Cancer; conditions: 10 μM
Description: as §1, §2, §3, §4, §5, §6

SF-295 = assay: NCI-60 screen, CNS Cancer; conditions: 10 μM
Description: as §1, §2, §3, §4, §5, §6

SF-268 = assay: NCI-60 screen, CNS Cancer; conditions: 10 μM
Description: as §1, §2, §3, §4, §5, §6

SF-539 = assay: NCI-60 screen, CNS Cancer; conditions: 10 μM
Description: as §1, §2, §3, §4, §5, §6

HCC-2998 = assay: NCI-60 screen, Colon Cancer; conditions: 10 μM
Description: as §1, §2, §3, §4, §5, §6

HCT-15 = assay: NCI-60 screen, Colon Cancer; conditions: 10 μM
Description: as §1, §2, §3, §4, §5, §6

COLO 205 = assay: NCI-60 screen, Colon Cancer; conditions: 10 μM
Description: as §1, §2, §3, §4, §5, §6

ACHN = assay: NCI-60 screen, Renal Cancer; conditions: 10 μM
Description: as §1, §2, §3, §4, §5, §6

A498 = assay: NCI-60 screen, Renal Cancer; conditions: 10 μM
Description: as §1, §2, §3, §4, §5, §6

TK-10 = assay: NCI-60 screen, Renal Cancer; conditions: 10 μM
Description: as §1, §2, §3, §4, §5, §6

CAKI-1 = assay: NCI-60 screen, Renal Cancer; conditions: 10 μM
Description: as §1, §2, §3, §4, §5, §6

RXF 393 = assay: NCI-60 screen, Renal Cancer; conditions: 10 μM
Description: as §1, §2, §3, §4, §5, §6

UO-31 = assay: NCI-60 screen, Renal Cancer; conditions: 10 μM
Description: as §1, §2, §3, §4, §5, §6

SN12C = assay: NCI-60 screen, Renal Cancer; conditions: 10 μM
Description: as §1, §2, §3, §4, §5, §6

Row | Compound | Percent Growth (MDA-MB-31/ATCC) | Percent Growth (MCF7) | Percent Growth (LOX IMVI) | Percent Growth (MALME-3M) | Percent Growth (UACC-62) | Percent Growth (SK-MEL-2) | Percent Growth (SK-MEL-28) | Percent Growth (SK-MEL-5) | Percent Growth (UACC-257) | Percent Growth (MDA-MB-435) | Percent Growth (SNB-19) | Percent Growth (SNB-75) | Percent Growth (SF-295) | Percent Growth (SF-268) | Percent Growth (SF-539) | Percent Growth (HCC-2998) | Percent Growth (HCT-15) | Percent Growth (COLO 205) | Percent Growth (ACHN) | Percent Growth (A498) | further results
1 | NCCCc1cccc(-c2ccc3sc4ccc(-c5cccc(CCCN)c5)cc4c3c2)c1 [Compound D] | 60.18% | −59.63% | 26.77% | 134.1% | 88.44% | 81% | 99.21% | 100.8% | 100% | 81.14% | 79.89% | 71.15% | 87.17% | 73.4% | 98.34% | 93.27% | 88.15% | 31.52% | 68.97% | 81.64% | Percent Growth (U251): 59.7%; Percent Growth (TK-10): 86.48%; Percent Growth (CAKI-1): 82.82%; Percent Growth (RXF 393): 81.71%; Percent Growth (UO-31): 85.61%; Percent Growth (SN12C): 84.45%
2 | c1cc(-c2ccc3sc4ccc(-c5ccnc(N6CCNCC6)c5)cc4c3c2)cc(N2CCNCC2)n1 [Compound E] | −41.26% | −89.85% | −80.29% | −4.679% | −41.07% | −73.48% | −51.91% | 63.85% | −70.37% | −84.03% | −43.97% | −94.79% | −50.65% | −37.05% | 14.26% | −9.443% | −54.01% | −59.52% | −69.18% | 75.11% | Percent Growth (U251): −85.72%; Percent Growth (TK-10): −52.46%; Percent Growth (CAKI-1): −13.76%; Percent Growth (RXF 393): −70.65%; Percent Growth (UO-31): −41.12%; Percent Growth (SN12C): −16.99%
3 | NCCCc1cccc(-c2ccc3oc4ccc(-c5cccc(CCCN)c5)cc4c3c2)c1 [Compound G] | 37.19% | −44.29% | −75.08% | 105% | 72.92% | 72.07% | 102.1% | 89.15% | 44.84% | 62.07% | 88.57% | 66.47% | 65.4% | 75.18% | 86.73% | 81.22% | 49.71% | 26.37% | 36.71% | 92.26% | Percent Growth (TK-10): 57.59%; Percent Growth (CAKI-1): 56.68%; Percent Growth (RXF 393): 65.05%; Percent Growth (UO-31): 84.95%; Percent Growth (SN12C): 82.22%
